Experiments:
E. aerogenes = assay: MIC of imipenem, ertapenem and meropenem; type: cell-based, Enterobacter aerogenes
C. koseri = assay: MIC of imipenem, ertapenem and meropenem; type: cell-based
enterobacterial isolates = assay: MIC of imipenem, ertapenem and meropenem (groups of isolates, other species); type: cell-based, Enterobacteriaceae
S. typhimurium = assay: MIC of imipenem, ertapenem and meropenem; type: cell-based
P. stuartii = assay: MIC of imipenem, ertapenem and meropenem; type: cell-based, Providencia stuartii
K. pneumoniae = assay: MIC of imipenem, ertapenem and meropenem; type: cell-based, Klebsiella pneumoniae

SMILES: C[C@@H](O)[C@H]1C(=O)N2C(C(=O)O)=C(SCCN=CN)C[C@H]12 [IPM, imipenem]
- MIC (E. aerogenes; E. aerogenes 1009, TEM-24, non-carbapenemase producer): 0.19 µg/mL
- MIC (E. aerogenes; E. aerogenes 1085 (TEM-24)): 0.12 µg/mL
- MIC (E. aerogenes; E. aerogenes 1085, TEM-24, non-carbapenemase producer): 0.12 µg/mL
- MIC (E. aerogenes; strain E. aerogenes 1085, TEM-24, non-carbapenemase producer): 0.12 µg/mL
- MIC (C. koseri; C. koseri ROU, OXA-48): 0.38 µg/mL
- MIC (C. koseri; C. koseri VER (OXA-48)): 0.75 µg/mL
- MIC (C. koseri; C. koseri VER, OXA-48): 0.75 µg/mL
- MIC (C. koseri; strain C. koseri VER, OXA-48): 0.75 µg/mL
- MIC (enterobacterial isolates; S. marcescens 0911033, IMP-1): >32 µg/mL
- MIC (enterobacterial isolates; S. marcescens 1008091, VIM-1+ CTX-M-15): >32 µg/mL
- MIC (enterobacterial isolates; S. marcescens C7052, KPC-2 + TEM-1 + SHV-12): >32 µg/mL
- MIC (enterobacterial isolates; S. marcescens D6403, KPC-2 + TEM-1): >32 µg/mL
- MIC (S. typhimurium; S. typhimurium 1081 (CTX-M-1)): 0.25 µg/mL
- MIC (S. typhimurium; S. typhimurium 1081, CTX-M-1, non-carbapenemase producer): 0.25 µg/mL
- MIC (S. typhimurium; strain S. typhimurium 1081, CTX-M-1, non-carbapenemase producer): 0.25 µg/mL
- MIC (P. stuartii; P. stuartii NDM (NDM-1 + OXA-1 + CMY-6)): 12 µg/mL
- MIC (P. stuartii; P. stuartii PS1 (NDM-1 + CMY-6 + OXA-1)): 12 µg/mL
- MIC (P. stuartii; P. stuartii PS1, NDM-1 + CMY-6 + OXA-1): 12 µg/mL
- MIC (P. stuartii; strain P. stuartii PS1, NDM-1 + CMY-6 + OXA-1): 12 µg/mL
- MIC (K. pneumoniae; K. pneumoniae 1 OMA (NDM-1 + CTX-M-15 + OXA-1 + OXA-9)): >32 µg/mL
- MIC (K. pneumoniae; K. pneumoniae 2 OLA (NDM-1 + OXA-1)): 1.5 µg/mL
- MIC (K. pneumoniae; K. pneumoniae 7 AFR (NDM-1 + OXA-1 + CTX-M-15 + CMY-6 + TEM-1)): >32 µg/mL
- MIC (K. pneumoniae; K. pneumoniae 7AFR, NDM-1 + TEM-1 + CTX-M-15 + CMY-6 + OXA-1): >32 µg/mL
- MIC (K. pneumoniae; K. pneumoniae 0227, SHV-1, non-carbapenemase producer): 0.19 µg/mL
- MIC (K. pneumoniae; K. pneumoniae 588, KPC-2 + TEM-1 + SHV-11 + OXA-9): 24 µg/mL
- MIC (K. pneumoniae; K. pneumoniae 1022, SHV-2a + SHV-28, non-carbapenemase producer): 0.5 µg/mL
- MIC (K. pneumoniae; K. pneumoniae 1025 (CTX-M-14 + TEM-1 + SHV-11)): 0.12 µg/mL
- MIC (K. pneumoniae; K. pneumoniae 1025, CTX-M-14 + TEM-1 + SHV-11, non-carbapenemase producer): 0.12 µg/mL
- MIC (K. pneumoniae; K. pneumoniae 2303, KPC-2 + SHV-11): >32 µg/mL
- MIC (K. pneumoniae; K. pneumoniae 6642 GEN (NDM-1 + CTX-M-15 + OXA-1 + OXA-10)): 1 µg/mL
- MIC (K. pneumoniae; K. pneumoniae 6642 GEN, NDM-1 + CTX-M-15 + OXA-1 + OXA-10): 1 µg/mL
- MIC (K. pneumoniae; K. pneumoniae 6759 GEN (NDM-1 + CTX-M-15 + OXA-1 + OXA-9 + OXA-10 + CMY16)): 12 µg/mL
- MIC (K. pneumoniae; K. pneumoniae 6759 GEN, NDM-1 + CTX-M-15 + CMY-16 + OXA-1 + OXA-9 + OXA-10): 12 µg/mL
- MIC (K. pneumoniae; K. pneumoniae 7725 (SHV-1)): 0.19 µg/mL
- MIC (K. pneumoniae; K. pneumoniae 7725, SHV-1, non-carbapenemase producer): 0.19 µg/mL
- MIC (K. pneumoniae; K. pneumoniae 10112, CTX-M-15 + TEM-1 + SHV-11, non-carbapenemase producer): 0.5 µg/mL
- MIC (K. pneumoniae; K. pneumoniae 0404020, VIM-1+ SHV-5): >32 µg/mL
- MIC (K. pneumoniae; K. pneumoniae 0404024, VIM-1): >32 µg/mL
- MIC (K. pneumoniae; K. pneumoniae 0511135, VIM-1+ SHV-12): >32 µg/mL
- MIC (K. pneumoniae; K. pneumoniae 648236 (SHV-2a)): 0.25 µg/mL
- MIC (K. pneumoniae; K. pneumoniae 648236, SHV-2a, non-carbapenemase producer, porin deficiency): 0.25 µg/mL
- MIC (K. pneumoniae; K. pneumoniae 0709121, IMP-1): 1.5 µg/mL
- MIC (K. pneumoniae; K. pneumoniae 0709124, IMP-1 + TEM-15): 8 µg/mL
- MIC (K. pneumoniae; K. pneumoniae 0709125, IMP-1 + TEM-1 + SHV-12): 1.5 µg/mL
- MIC (K. pneumoniae; K. pneumoniae 0709127, IMP-1 + TEM-1): 0.5 µg/mL
- MIC (K. pneumoniae; K. pneumoniae A28006, KPC-2 + TEM-1 + CTX-M-2 + SHV-11): 16 µg/mL
- MIC (K. pneumoniae; K. pneumoniae A33504, KPC-2 + TEM-1 + SHV-11 + CTX-M-2 + OXA-9): >32 µg/mL
- MIC (K. pneumoniae; K. pneumoniae AEL, OXA-48 + CTX-M-15 + SHV-28 + OXA-1): 0.5 µg/mL
- MIC (K. pneumoniae; K. pneumoniae ALE (CTX-M-15 + SHV-1)): 1 µg/mL
- MIC (K. pneumoniae; K. pneumoniae ALE, CTX-M-15 + SHV-1, non-carbapenemase producer, porin deficiency): 1 µg/mL
- MIC (K. pneumoniae; K. pneumoniae AMS (OXA-48 + TEM-1 + CTX-M-15 + OXA-1)): 0.5 µg/mL
- MIC (K. pneumoniae; K. pneumoniae AMS, OXA-48 + TEM-1 + CTX-M-15 + OXA-1): 0.5 µg/mL
- MIC (K. pneumoniae; K. pneumoniae BAJ (OXA-48 + TEM-1 + CTX-M-15 + SHV-28)): 0.5 µg/mL
- MIC (K. pneumoniae; K. pneumoniae BAJ, OXA-48 + TEM-1 + CTX-M-15 + SHV-28): 0.5 µg/mL
- MIC (K. pneumoniae; K. pneumoniae BED (CTX-M-15 + TEM-1 + SHV-1; Table 8: SHV-11)): 1.5 µg/mL
- MIC (K. pneumoniae; K. pneumoniae BED, CTX-M-15 + TEM-1 + SHV-11, non-carbapenemase producer, porin deficiency): 1.5 µg/mL
- MIC (K. pneumoniae; K. pneumoniae BEL (OXA-48)): 1 µg/mL
- MIC (K. pneumoniae; K. pneumoniae BEL, OXA-48): 1 µg/mL
- MIC (K. pneumoniae; K. pneumoniae BEN (OXA-48 + TEM-1 + CTX-M-15 + SHV-28)): 0.38 µg/mL
- MIC (K. pneumoniae; K. pneumoniae BEN, OXA-48 + TEM-1 + CTX-M-15 + SHV-28): 0.38 µg/mL
- MIC (K. pneumoniae; K. pneumoniae BER (TEM-1 + SHV-28)): 1 µg/mL
- MIC (K. pneumoniae; K. pneumoniae BER, SHV-28 + TEM-1, non-carbapenemase producer, porin deficiency): 1 µg/mL
- MIC (K. pneumoniae; K. pneumoniae BEY (OXA-48 + CTX-M-15 + TEM-1)): 0.38 µg/mL
- MIC (K. pneumoniae; K. pneumoniae BEY, OXA-48 + TEM-1 + CTX-M-15): 0.38 µg/mL
- MIC (K. pneumoniae; K. pneumoniae BIC (OXA-48)): 0.5 µg/mL
- MIC (K. pneumoniae; K. pneumoniae BIC, OXA-48): 0.5 µg/mL
- MIC (K. pneumoniae; K. pneumoniae BOU, OXA-48): 0.38 µg/mL
- MIC (K. pneumoniae; K. pneumoniae CHA (OXA-48 + TEM-1)): 0.38 µg/mL
- MIC (K. pneumoniae; K. pneumoniae CHA, OXA-48 + TEM-1): 0.38 µg/mL
- MIC (K. pneumoniae; K. pneumoniae COL (KPC-2 + TEM-1 + SHV-1 + CTX-M-15)): 4 µg/mL
- MIC (K. pneumoniae; K. pneumoniae COO (CTX-M-15 + SHV28)): 8 µg/mL
- MIC (K. pneumoniae; K. pneumoniae COO, CTX-M-15 + SHV-28, non-carbapenemase producer, porin deficiency): 8 µg/mL
- MIC (K. pneumoniae; K. pneumoniae DAL (OXA-48 + CTX-M-15 + TEM-1)): 0.38 µg/mL
- MIC (K. pneumoniae; K. pneumoniae DAL, OXA-48 + TEM-1 + CTX-M-15): 0.38 µg/mL
- MIC (K. pneumoniae; K. pneumoniae DIA, OXA-48 + TEM-1b + CTX-M-15 + SHV-11 + OXA-1): >32 µg/mL
- MIC (K. pneumoniae; K. pneumoniae DUW, OXA-48 + TEM-1 + CTX-M-15 + SHV-28): 32 µg/mL
- MIC (K. pneumoniae; K. pneumoniae EGY (OXA-48 + CTX-M-15)): 2 µg/mL
- MIC (K. pneumoniae; K. pneumoniae EGY, OXA-48 + CTX-M-15): 2 µg/mL
- MIC (K. pneumoniae; K. pneumoniae ELK (OXA-48 + TEM-1 + CTX-M-15 + SHV-11)): 0.5 µg/mL
- MIC (K. pneumoniae; K. pneumoniae ELK, OXA-48 + TEM-1 + CTX-M-15 + SHV-11): 0.5 µg/mL
- MIC (K. pneumoniae; K. pneumoniae ENN, VIM-1+ SHV-5): 0.5 µg/mL
- MIC (K. pneumoniae; K. pneumoniae FOS (CTX-M-15 + TEM-1 + SHV-11)): 6 µg/mL
- MIC (K. pneumoniae; K. pneumoniae FOS, CTX-M-15 + TEM-1 + SHV-11, non-carbapenemase producer, porin deficiency): 6 µg/mL
